Assay: solvent given as SMILES

c1ccc([Si]2(c3ccccc3)c3ccccc3-c3cc4c(cc32)-c2ccccc2[Si]4(c2ccccc2)c2ccccc2)cc1
emission maximum (in ClCCl): 395 nm

Clc1ccc(-c2c3nc(c(-c4ccc(Cl)cc4)c4ccc([nH]4)c(-c4ccc(Cl)cc4)c4nc(c(-c5ccc(Cl)cc5)c5ccc2[nH]5)C=C4N2CCOCC2)C=C3)cc1
emission maximum (in CS(C)=O): 662 nm

CC(C)(C)c1ccc2c(c1)c1cc(C(C)(C)C)ccc1n2-c1ccc(C(=CC#N)c2ccc(-n3c4ccc(C(C)(C)C)cc4c4cc(C(C)(C)C)ccc43)cc2)cc1
emission maximum (in Cc1ccccc1): 450 nm

N#Cc1nc2c3ccc(-c4ccc(N(c5ccccc5)c5ccccc5)cc4)cc3c3cc(-c4ccc(N(c5ccccc5)c5ccccc5)cc4)ccc3c2nc1C#N
emission maximum (in C1COCCO1): 633.42 nm
emission maximum (in CCCCCC): 503.54 nm
emission maximum (in Cc1ccccc1): 588 nm
emission maximum (in ClC(Cl)Cl): 721.14 nm
emission maximum (in O=P(c1ccccc1)(c1ccccc1)c1cccc(-c2cc(-n3c4ccccc4c4ccccc43)cc(-n3c4ccccc4c4ccccc43)c2)n1): 628 nm

O=[N+]([O-])c1ccc(/C2=C3N=C(C(c4ccccc4)=C/3c3ccccc3)/C(c3ccc([N+](=O)[O-])cc3)=c3\[nH]/c(c(-c4ccccc4)c3-c3ccccc3)=C(/c3ccc([N+](=O)[O-])cc3)C3=N/C(=C(/c4ccc([N+](=O)[O-])cc4)c4[nH]c2c(-c2ccccc2)c4-c2ccccc2)C(c2ccccc2)=C3c2ccccc2)cc1
emission maximum (in ClCCl): 745 nm

CN(C)c1ccc(/C=C/C=C2\CC/C(=C\c3ccc(N(C)C)cc3)C2=O)cc1
emission maximum (in C1CCOC1): 649 nm
emission maximum (in CC#N): 666 nm
emission maximum (in CC(C)=O): 650 nm
emission maximum (in CC(C)O): 687 nm
emission maximum (in CCCCCC): 504 nm
emission maximum (in CCCCO): 712 nm
emission maximum (in CCCCOC(C)=O): 581 nm
emission maximum (in CCCO): 717 nm
emission maximum (in CCO): 725 nm
emission maximum (in CCOC(=O)c1ccccc1): 604 nm
emission maximum (in CCOC(C)=O): 591 nm
emission maximum (in CCOCC): 546 nm
emission maximum (in CN(C)C=O): 656 nm
emission maximum (in CO): 737 nm
emission maximum (in CS(C)=O): 676 nm
emission maximum (in Cc1ccccc1): 530 nm
emission maximum (in ClC(Cl)(Cl)Cl): 515 nm
emission maximum (in ClC(Cl)Cl): 623 nm
emission maximum (in ClCCl): 635 nm
emission maximum (in Clc1ccccc1Cl): 608 nm
emission maximum (in S=C=S): 540 nm
emission maximum (in c1ccccc1): 532 nm
emission maximum (in c1ccncc1): 643 nm

COc1ccc(/C=C/C2=[O+][B-](F)(F)OC(/C=C/c3ccc(OC)c4ccccc34)=C2c2ccccc2)c2ccccc12
emission maximum (in CC#N): 649 nm
emission maximum (in CC(C)=O): 631 nm
emission maximum (in CCOC(C)=O): 603 nm
emission maximum (in CCOCC): 583 nm
emission maximum (in ClC(Cl)(Cl)Cl): 577 nm
emission maximum (in ClCCl): 633 nm

COCCN1C(=O)/C(=C/c2cccc(N(C)C)c2)N=C1C
emission maximum (in C1CCOC1): 563 nm
emission maximum (in CC#N): 632 nm
emission maximum (in CCCCCC): 491 nm

CCOC(=O)CN1C(=O)C2=C(c3ccc(C#N)cc3)N(CC(=O)OCC)C(=O)C2=C1c1ccc(C#N)cc1
emission maximum (in CC#N): 549 nm
emission maximum (in CS(C)=O): 557 nm
emission maximum (in Cc1ccccc1): 558 nm

CN1/C(=C/C=C(/C=C/C2=[N+](C)c3ccccc3C2(C)C)c2ccc(C(F)(F)F)cc2)C(C)(C)c2ccccc21
emission maximum (in CCO): 665 nm
emission maximum (in CO): 659 nm
emission maximum (in CS(C)=O): 665 nm
emission maximum (in O): 658 nm

COc1ccc(C2=C(c3ccc(OC)cc3)c3cccc4c5c(cc(c34)O2)=NC2C=C(Br)C(Br)=CC2N=5)cc1 (stereo not drawn)
emission maximum (in ClCCl): 609 nm

COc1ccc(C(=O)NC(C)(C)C)c2c1ccc1c3ccccc3c3ccccc3c12
emission maximum (in ClCCl): 407 nm

Cc1ccccc1N(c1ccccc1C)c1ccc2ccc3c(N(c4ccccc4C)c4ccccc4C)ccc4ccc1c2c43
emission maximum (in Cc1ccccc1): 452 nm

[NH3+]C(Cc1ccc(O)c(O)c1)C(=O)[O-] (stereo not drawn)
emission maximum (in O): 318 nm

COC(=O)/C=C/c1sc(-c2ccc(N(C)C)cc2)c(-c2cccnc2)c1N
emission maximum (in CC#N): 593 nm

C1=Cc2ccccc2C(=Cc2ccc(-c3ccc(C=C4c5ccccc5-c5ccccc54)cc3)cc2)c2ccccc21
emission maximum (in C1CCOC1): 450 nm

COc1ccc(CCNC(=O)c2sc(-c3ccc(-c4cc(-c5ccc(C(C)(C)C)cc5)c(C(=O)NCCc5ccc(OC)c(OC)c5)s4)s3)cc2-c2ccc(C(C)(C)C)cc2)cc1OC
emission maximum (in ClCCl): 449 nm

Cc1ccc(-c2nc(-c3ccc(O)cc3)[nH]c2-c2ccc(C)cc2)cc1
emission maximum (in CO): 395 nm

Cc1ccc([B-]2(c3ccc(C)cc3)n3nc(C(F)(F)F)cc3-c3c4ccccc4cc[n+]32)cc1
emission maximum (in C1CCCCC1): 407 nm
emission maximum (in Cc1ccccc1): 407 nm
emission maximum (in ClCCl): 407 nm

CCC1(CC)c2cc(B(c3c(C)cc(C)cc3C)c3c(C)cc(C)cc3C)ccc2-c2ccc(N(c3ccccc3)c3ccc4c(c3)C(CC)(CC)c3cc(B(c5c(C)cc(C)cc5C)c5c(C)cc(C)cc5C)ccc3-4)cc21
emission maximum (in C1CCOC1): 490 nm
emission maximum (in CC#N): 538 nm
emission maximum (in CC(C)=O): 515 nm
emission maximum (in CCCCCC): 445 nm
emission maximum (in CN(C)C=O): 533 nm
emission maximum (in Cc1ccccc1): 461 nm
emission maximum (in ClC(Cl)Cl): 477 nm

CCOC(=O)COc1ccc(/C=C/C2=C3c4ccccc4C(c4[nH]c(C)cc4C)=[N+]3[B-](F)(F)n3c(C)cc(C)c32)cc1
emission maximum (in C1CCOC1): 684 nm
emission maximum (in CC#N): 681 nm
emission maximum (in CCCCCC): 679 nm
emission maximum (in CO): 680 nm
emission maximum (in Cc1ccccc1): 690 nm
emission maximum (in ClCCl): 687 nm

F[B-]1(F)OC(c2ccc(C(F)(F)F)cc2)=Cc2c3ccccc3cc[n+]21
emission maximum (in ClC(Cl)Cl): 464.6 nm

CCCC(=O)c1c2c(c(C(=O)CCC)c3c1OC(CC(=O)OC)(C(=O)O)O3)OCO2
emission maximum (in CC#N): 542 nm
emission maximum (in CCO): 603 nm
emission maximum (in CO): 614 nm
emission maximum (in ClCCl): 530 nm
emission maximum (in O): 637 nm

COC(=O)c1ccc(/C=C2\C=C(c3ccc(C#N)cc3)N(CC(C)C)C2=O)cc1
emission maximum (in C1COCCO1): 589 nm

Nc1ccc(/C=C2\OC(=O)c3ccccc32)cc1
emission maximum (in CC#N): 547.95 nm
emission maximum (in CC(C)=O): 390.02 nm
emission maximum (in CC(C)CO): 547.65 nm
emission maximum (in CC(C)O): 548.25 nm
emission maximum (in CCCO): 549.75 nm
emission maximum (in CCO): 552.49 nm
emission maximum (in CCOC(C)=O): 503.52 nm
emission maximum (in CCOCC): 485.91 nm
emission maximum (in CO): 552.49 nm

Fc1cc(F)c2cc3cccc[n+]3cc2c1
emission maximum (in O): 420 nm

CN(C)c1ccc(C2=[N+]3C(=Nc4c(-c5ccc(OCCCCS(=O)(=O)[O-])cc5)cc(-c5ccc(N(C)C)cc5)n4[B-]3(F)F)C(c3ccc(OCCCCS(=O)(=O)[O-])cc3)=C2)cc1
emission maximum (in CS(C)=O): 826 nm

c1ccc(Nc2nc(Nc3ccccc3)nc(Nc3ccc4c5cccc6cccc(c7cccc3c74)c65)n2)cc1
emission maximum (in C1COCCO1): 487 nm
emission maximum (in CC#N): 492 nm
emission maximum (in CCCCOCCCC): 486 nm
emission maximum (in CCOC(C)=O): 488 nm

CN(C)c1ccc(-c2nc3cc(C(F)(F)F)ccc3n2-c2ccccc2)cc1
emission maximum (in CC#N): 406 nm

CC1(C)C2=C(c3ccccc31)S(=O)(=O)c1ccccc12
emission maximum (in ClCCl): 444 nm

C[Si](C)(c1cccc2cc3ccccc3cc12)[Si](C)(C)c1cccc2cc3ccccc3cc12
emission maximum (in C1CCCCC1): 412 nm
emission maximum (in CC#N): 412 nm

CC1=[N+]2C(=C(c3ccc(C(=C(c4ccccc4)c4ccccc4)c4ccccc4)cc3)c3ccc(C)n3[B-]2(F)F)C=C1
emission maximum (in C1CCOC1): 530 nm

CCCCN(CCCC)c1ccc2c(c1)C#CC#Cc1cc(N(CCCC)CCCC)ccc1C#Cc1cc(c3cc1C#Cc1ccc(C(F)(F)F)cc1C#CC#Cc1cc(C(F)(F)F)ccc1C#C3)C#C2
emission maximum (in ClCCl): 551 nm
emission maximum (in c1ccccc1): 499 nm

C(=C\c1nc(-c2ccccc2)c2ccccn12)/c1nc(-c2ccccc2)c2ccccn12
emission maximum (in CC#N): 491 nm

N#Cc1ccc(-c2ccc(C3=CCC(c4ccccc4)CC3)s2)s1 (stereo not drawn)
emission maximum (in C1CCOC1): 442 nm
emission maximum (in CC#N): 448 nm
emission maximum (in CCCCCC): 427 nm
emission maximum (in CCO): 444 nm
emission maximum (in OCCOCCO): 452 nm
emission maximum (in c1ccncc1): 452 nm

Cn1nc(-c2ccccc2)cc1-c1ccccc1
emission maximum (in ClCCl): 338 nm

CC(=O)c1ccc(-c2cccc3ncc(-c4ccccc4)n23)cc1
emission maximum (in ClCCl): 506 nm

CCCCC1=Cc2c3ccc4cccc5ccc(c6cc(-c7ccc(N(c8ccccc8)c8ccccc8)cc7)n(c26)P1(=O)c1ccccc1)c3c45 (stereo not drawn)
emission maximum (in C1CCCCC1): 502 nm
emission maximum (in C1CCOC1): 541 nm
emission maximum (in C1COCCO1): 526 nm
emission maximum (in CC#N): 572 nm
emission maximum (in CC(C)=O): 560 nm
emission maximum (in CO): 563 nm
emission maximum (in Cc1ccccc1): 518 nm
emission maximum (in ClC(Cl)Cl): 537 nm
emission maximum (in ClCCl): 551 nm

Nc1ccc(-c2ccc3c(c2)C(=O)c2ccccc2C3=O)cc1
emission maximum (in CCCCCC): 512 nm
emission maximum (in CCOCC): 643 nm
emission maximum (in Cc1ccccc1): 599 nm
emission maximum (in ClC(Cl)(Cl)Cl): 562 nm
emission maximum (in ClCCl): 695 nm

O=C1CCCC2=C1CC1=C(CCCC1=O)N2NC(=O)c1ccc(O)cc1
emission maximum (in CC#N): 434 nm
emission maximum (in CC(C)=O): 432 nm
emission maximum (in CCCCCO): 447 nm
emission maximum (in CO): 449 nm
emission maximum (in ClC(Cl)Cl): 444 nm
emission maximum (in ClCCl): 436 nm

COc1ccc2oc(-c3cc4cc(OC)ccc4oc3=O)cc2c1
emission maximum (in CC#N): 480 nm
emission maximum (in CCOC(C)=O): 443 nm
emission maximum (in CS(C)=O): 484 nm
emission maximum (in Cc1ccccc1): 446 nm

CCC1=C(C)C2=Cc3c4ccccc4c4n3[B-](c3ccc(OC)cc3)(Oc3ccccc3-4)[N+]2=C1C (stereo not drawn)
emission maximum (in CC#N): 634 nm
emission maximum (in CCCCCC): 635 nm
emission maximum (in Cc1ccccc1): 641 nm
emission maximum (in ClCCl): 639 nm

CCN(CC)c1cccc2c1ccc1c(=O)oc(-c3ccc(C(F)(F)F)cc3)cc12
emission maximum (in CC(C)=O): 604 nm
emission maximum (in CCCCCC): 469 nm
emission maximum (in CCCCCCCCO): 561 nm
emission maximum (in CCCCO): 578 nm
emission maximum (in CCCO): 587 nm
emission maximum (in CCO): 599 nm
emission maximum (in CCOC(C)=O): 568 nm
emission maximum (in CN(C)C=O): 613 nm
emission maximum (in CO): 604 nm
emission maximum (in ClC(Cl)Cl): 542 nm

Source: the Deep4Chem optical property database
